# According to US20220184072A1 (priority 2019, published 2022):
# Legend:
# Type in all cases: in vivo
# STZ-diabetic rats [1] = test: STZ-rat model, mechanical (pressure) stimuli
# Protocol: (§1) The compound of Example 1 is also tested in an STZ-rat model of neuropathic pain. Briefly, adult female rats are made diabetic by treatment with streptozotocin (STZ), an alkylating neoplastic agent which is particularly toxic to the insulin-producing beta cells of the pancreas. The resulting type-I diabetes in the rats leads to the development of diabetic neuropathy over a 3 to 6-week period. […] Once diabetic neuropathy has been induced, the rats may be treated to determine the analgesic effect of compounds.
# Paw mechanical response threshold is also a clinical assessment of allodynia to light touch, but it relies on the observed response to pressure (force) applied to a paw.
# This test is performed by measuring the static applied force threshold (pressure) for paw removal, as described above.
# NR2B = test: CNS phosphoprotein profile, NR2B; settings: mice nucleus accumbens, 3 mg/kg, 30-60 minutes
# Protocol: (§2) A comprehensive molecular phosphorylation study is also carried out to examine the central nervous system (CNS) profile of the compound of Example 1. The extent of protein phosphorylation for selected key central nervous system proteins is measured in mice nucleus accumbens.
# (§3) Mice were killed 30 minutes to 2 hours post-injection by focused microwave cranial irradiation, which preserves brain phosphoprotein as it exists at the time of death. Nucleus accumbens was then dissected from each mouse brain, sliced and frozen in liquid nitrogen. Samples were further prepared for phosphoprotein analysis via SDS-PAGE electrophoresis followed by phosphoprotein-specific immunoblotting, as described in Zhu H, et al., Brain Res. 2010 Jun. 25; 1342:11-23. Phosphorylation at each site was quantified, normalized to total levels of the protein (non-phosphorylated), and expressed as percent of the level of phosphorylation in vehicle-treated control mice.
# ZFD rats [2] = test: ZFD rat model, manual von Frey (tactile); set-up: unit not given here
# ZFD rats [3] = test: ZFD rat model, paw formalin test; settings: s.c. or i.t., at the end of the study
# Excerpt: Paw formalin test: This test enables discrimination of pain driven by primary afferent input (phase 1) versus spinal sensitization and amplifications of primary afferent input (phase 2). There is, however, no clinical equivalent to this test. The method used here is described in detail in Calcutt (2004), supra.
# STZ-diabetic rats [4] = test: STZ-rat model, cold allodynia response
# Protocol: as §1
# Paw cold response threshold is a clinical assessment of cold pain perception. A rigid filament with a thermoelectric cooling system is used to stimulate the plantar surface of the hind paw for 5 seconds. The stimulus is repeated ten times at 2 to 5-minute intervals. The number of paw withdrawal responses is recorded and converted to a response frequent figure (%). This procedure is repeated at a variety of temperatures. […] At a stimulus temperature of 20° C. or 15° C., the response frequency is found to be substantially the same between STZ-treated rats and control rats (from about 10-20% response). In contrast, at a stimulus temperature of 10° C. or below, there is a substantial divergence of frequency response. In control rats, a stimulus temperature of 10° C. results in about 10% response frequency, while at 5° C., this increases to about 40% response frequency. In contrast, STZ-treated rats show a response frequency of about 60% at 10° C., and about 80% at 5° C. […] A stable cold allodynia response is observed 4-12 weeks after induction of diabetes.
# The cold allodynia response test is performed at 0 hours, 1 hour, 2 hours, 4 hours and 6 hours, as described above, using a 10° C. stimulus temperature. The injection vehicle is pure polyethylene glycol-400 (PEG400).
# [5] = test system: TH (tyrosine hydroxylase); test: CNS phosphoprotein profile, TH; settings: mice nucleus accumbens; Example 1 3 mg/kg at 30 or 60 minutes; haloperidol 2 mg/kg
# Protocol: as §2, §3
smiles,measurement,setting,value
"O=C1CN2c3c(cccc3[C@@H]3CN(CCCOc4ccc(F)cc4)CC[C@@H]32)N1 [Example 1, (6bR,10aS)-8-(3-(4-fluorophenoxy)propyl)-6b,7,8,9,10,10a-hexahydro-1H-pyrido[3′,4′:4,5]pyrrolo[1,2,3-de]quinoxalin-2(3H)-one]",withdrawal force threshold,"STZ-diabetic rats [1]; 1 mg/kg s.c., 4 hours (peak)",about 40 g
same,withdrawal force threshold,"STZ-diabetic rats [1]; 1 mg/kg s.c., 6 hours",about 35 g
same,withdrawal force threshold,"STZ-diabetic rats [1]; 3 mg/kg s.c., 2 hours (peak)",about 45 g
same,withdrawal force threshold,"STZ-diabetic rats [1]; 3 mg/kg s.c., 6 hours",about 25 g
same,withdrawal force threshold,"STZ-diabetic rats [1]; 10 mg/kg s.c., 1 hour",about 60 g
same,withdrawal force threshold,"STZ-diabetic rats [1]; 10 mg/kg s.c., 2 hours to 4 hours",45 to 50 g
same,withdrawal force threshold,"STZ-diabetic rats [1]; 10 mg/kg s.c., 6 hours",about 35 g
same,NR2B phosphorylation at Tyr1472,NR2B,no significant effect
same,"Manual von Frey, threshold for paw withdrawal","ZFD rats [2]; Control rats, 10 μg i.t., 0 hr",11.90
same,"Manual von Frey, threshold for paw withdrawal","ZFD rats [2]; Control rats, 10 μg i.t., 1 hr",13.90
same,"Manual von Frey, threshold for paw withdrawal","ZFD rats [2]; Control rats, 10 μg i.t., 2 hr",14.14
same,"Manual von Frey, threshold for paw withdrawal","ZFD rats [2]; Control rats, 10 μg i.t., 4 hr",13.67
same,"Manual von Frey, threshold for paw withdrawal","ZFD rats [2]; Control rats, 10 mg/kg s.c., 0 hr",13.98
same,"Manual von Frey, threshold for paw withdrawal","ZFD rats [2]; Control rats, 10 mg/kg s.c., 1 hr",12.28
same,"Manual von Frey, threshold for paw withdrawal","ZFD rats [2]; Control rats, 10 mg/kg s.c., 2 hr",13.93
same,"Manual von Frey, threshold for paw withdrawal","ZFD rats [2]; Control rats, 10 mg/kg s.c., 4 hr",13.45
same,"Manual von Frey, threshold for paw withdrawal","ZFD rats [2]; ZFD rats, 1 μg i.t., 0 hr",2.06
same,"Manual von Frey, threshold for paw withdrawal","ZFD rats [2]; ZFD rats, 1 μg i.t., 1 hr",2.28
same,"Manual von Frey, threshold for paw withdrawal","ZFD rats [2]; ZFD rats, 1 μg i.t., 4 hr",4.25
same,"Manual von Frey, threshold for paw withdrawal","ZFD rats [2]; ZFD rats, 3 μg i.t., 0 hr",5.78
same,"Manual von Frey, threshold for paw withdrawal","ZFD rats [2]; ZFD rats, 3 μg i.t., 1 hr",9.68
same,"Manual von Frey, threshold for paw withdrawal","ZFD rats [2]; ZFD rats, 3 μg i.t., 2 hr",12.11
same,"Manual von Frey, threshold for paw withdrawal","ZFD rats [2]; ZFD rats, 3 μg i.t., 4 hr",7.01
same,"Manual von Frey, threshold for paw withdrawal","ZFD rats [2]; ZFD rats, 10 μg i.t., 0 hr",1.92
same,"Manual von Frey, threshold for paw withdrawal","ZFD rats [2]; ZFD rats, 10 μg i.t., 1 hr",8.53
same,"Manual von Frey, threshold for paw withdrawal","ZFD rats [2]; ZFD rats, 10 μg i.t., 2 hr",11.57
same,"Manual von Frey, threshold for paw withdrawal","ZFD rats [2]; ZFD rats, 10 μg i.t., 4 hr",4.77
same,"Manual von Frey, threshold for paw withdrawal","ZFD rats [2]; ZFD rats, 1 mg/kg s.c., 1 hr",2.61
same,"Manual von Frey, threshold for paw withdrawal","ZFD rats [2]; ZFD rats, 1 mg/kg s.c., 2 hr",1.70
same,"Manual von Frey, threshold for paw withdrawal","ZFD rats [2]; ZFD rats, 1 mg/kg s.c., 4 hr",2.07
same,"Manual von Frey, threshold for paw withdrawal","ZFD rats [2]; ZFD rats, 3 mg/kg s.c., 0 hr",2.22
same,"Manual von Frey, threshold for paw withdrawal","ZFD rats [2]; ZFD rats, 3 mg/kg s.c., 1 hr",6.48
same,"Manual von Frey, threshold for paw withdrawal","ZFD rats [2]; ZFD rats, 3 mg/kg s.c., 2 hr",10.15
same,"Manual von Frey, threshold for paw withdrawal","ZFD rats [2]; ZFD rats, 10 mg/kg s.c., 0 hr",1.71
same,"Manual von Frey, threshold for paw withdrawal","ZFD rats [2]; ZFD rats, 10 mg/kg s.c., 1 hr",6.97
same,"Manual von Frey, threshold for paw withdrawal","ZFD rats [2]; ZFD rats, 10 mg/kg s.c., 2 hr",13.47
same,"Manual von Frey, threshold for paw withdrawal","ZFD rats [2]; ZFD rats, 10 mg/kg s.c., 4 hr",9.25
same,pain responses in early or late phase of the formalin test,ZFD rats [3],no effect
same,cold response frequency,"STZ-diabetic rats [4]; 1 mg/kg s.c., 1 hour",~35%
same,cold response frequency,"STZ-diabetic rats [4]; 1 mg/kg s.c., 4 hours",about 70%
same,cold response frequency,"STZ-diabetic rats [4]; 1 mg/kg s.c., 6 hours",about 75%
same,cold response frequency,"STZ-diabetic rats [4]; 3 mg/kg s.c., 1 hour",about 10%
same,cold response frequency,"STZ-diabetic rats [4]; 3 mg/kg s.c., 4 hours",about 65%
same,cold response frequency,"STZ-diabetic rats [4]; 3 mg/kg s.c., 6 hours",75%
same,cold response frequency,"STZ-diabetic rats [4]; 10 mg/kg s.c., 1 hour",about 15%
same,cold response frequency,"STZ-diabetic rats [4]; 10 mg/kg s.c., 2 hours",about 10%
same,cold response frequency,"STZ-diabetic rats [4]; 10 mg/kg s.c., 4 hours",about 20%
same,cold response frequency,"STZ-diabetic rats [4]; 10 mg/kg s.c., 6 hours",about 40%
same,increase in TH phosphorylation at Ser40,[5],no significant effect
